What was measured:
[1] = test system: A549 cells infected with influenza A virus; assay type: cell-based, human; settings: for decrease of the SOD1 protein during viral infection: A549 cells treated in vitro with inhibitor of autophagy or endoplasmic reticulum stress
influenza virus [2] = test system: influenza virus; set-up: species or system mice (C57BL/6N or BALB/c); settings: mouse, in vivo
influenza virus [3] = assay type: in vivo, mice

Compound: Cn1cnc(N)c2ncnc1-2 [3-MA, 3-methyladenine]
- LC3 conversion [1]: decreased
- amount of SOD1 protein [1]: increase
- expression of viral protein PB1 [1]: decreased expression
- decrease of the SOD1 protein during viral infection [1]: reduced significantly

Compound: O=C(O)CCCc1ccccc1 [4-PBA, 4-phenylbutyrate]
- decrease of the SOD1 protein during viral infection [1]: reduced significantly
- production of ROS compared to non-administration group (influenza virus [2]): decreased significantly

Compound: CC(=O)N[C@@H](CS)C(=O)O [NAC, N-acetylcysteine]
- body weight (survivability) (influenza virus [3]; […], SOD1 50 units/mouse, NAC 1 mg/mouse, 4-PBA 2.5 mg/mouse, catalase 50 units/mouse): significant difference in body weight

Compound: CCN(CC)CCCC(C)Nc1ccnc2cc(Cl)ccc12 (stereo not drawn) [chloroquine]
- amount of SOD1 protein [1]: more distinct than that of 3-MA
- decrease of the SOD1 protein during viral infection [1]: reduced significantly

Compound: SOD1: superoxide dismutase 1, ROS scavenger; human SOD1 gene expressed in bacteria from pET-SOD1
- body weight decrease (influenza virus [3]; mouse, in vivo): slightly inhibited
- amount of ROS in the bronchoalveolar lavage fluid (influenza virus [2]): decreased
- amount of SOD1 in lung tissue (influenza virus [2]): recovered to a level close to that before the infection
